Here are results for 43 compounds from patent US20250059141A1, “TLR MODULATOR AND USE THEREOF” (DUALITY BIOLOGICS (SUZHOU) CO., LTD., priority 2021, published 2025).

As a reminder, the EC50 is the concentration at which the effect is half-maximal.

Read-outs that look alike come from different tables or passages of the source.

For this assay, the target named is T1, hTLR7 (human Toll-like receptor 7) (Homo sapiens, UniProt Q9NYK1).
T1 construct: host or cells: HEK-Blue hTLR7 (HEK293-derived reporter cells)
T1 sequence (Q9NYK1 27-1049): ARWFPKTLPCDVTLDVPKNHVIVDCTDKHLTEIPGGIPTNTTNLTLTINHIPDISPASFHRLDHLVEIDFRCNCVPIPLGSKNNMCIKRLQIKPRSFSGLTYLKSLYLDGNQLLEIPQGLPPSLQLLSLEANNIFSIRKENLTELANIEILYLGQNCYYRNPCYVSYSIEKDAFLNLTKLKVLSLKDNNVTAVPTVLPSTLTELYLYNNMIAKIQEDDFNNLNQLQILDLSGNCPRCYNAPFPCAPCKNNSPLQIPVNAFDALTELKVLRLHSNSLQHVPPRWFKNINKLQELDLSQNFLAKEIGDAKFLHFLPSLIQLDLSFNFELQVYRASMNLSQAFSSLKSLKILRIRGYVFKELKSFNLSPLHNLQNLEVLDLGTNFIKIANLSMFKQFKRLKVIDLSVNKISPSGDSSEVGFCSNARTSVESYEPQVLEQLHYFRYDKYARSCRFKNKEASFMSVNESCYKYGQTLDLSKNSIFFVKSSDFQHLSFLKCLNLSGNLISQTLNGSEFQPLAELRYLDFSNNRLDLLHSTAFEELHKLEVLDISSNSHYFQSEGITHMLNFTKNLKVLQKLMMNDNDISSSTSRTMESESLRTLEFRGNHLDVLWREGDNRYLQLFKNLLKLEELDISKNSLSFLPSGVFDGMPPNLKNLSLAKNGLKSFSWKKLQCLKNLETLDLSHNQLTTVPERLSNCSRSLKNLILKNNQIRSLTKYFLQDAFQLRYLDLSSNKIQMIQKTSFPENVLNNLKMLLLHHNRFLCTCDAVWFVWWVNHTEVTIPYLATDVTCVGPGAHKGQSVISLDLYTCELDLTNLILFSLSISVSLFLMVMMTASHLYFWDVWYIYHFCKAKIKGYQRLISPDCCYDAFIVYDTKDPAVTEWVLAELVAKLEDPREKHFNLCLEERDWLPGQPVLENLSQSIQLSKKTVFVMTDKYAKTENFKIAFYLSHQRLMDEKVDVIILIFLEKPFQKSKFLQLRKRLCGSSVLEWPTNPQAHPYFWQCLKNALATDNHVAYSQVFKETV
Description: HEK-Blue hTLR7 reporter assay (QUANTI-Blue, OD650). Type of assay: cell-based. As to conditions: HEK-Blue hTLR7 cells, 24 h, read-out: Reporter assay TLR7 EC50. The procedure: In this example, the agonistic activity of the compounds of the present application on hTLR7 (human Toll-like receptor 7) and hTLR8 (human Toll-like receptor 8) was assessed; the induction activity of the compounds on human PBMCs for TNF-α and IFN-α production was assessed in human PBMCs (human peripheral blood mononuclear cells).
All compounds were formulated in DMSO into 30 mM stock solutions and preserved at 4° C. The reference compound ([…], Cat. No. tlrl-r848-5) was purchased from InvivoGen and formulated into a 5 mg/mL stock solution in DMSO and preserved in a freezer at −20° C. HEK-Blue hTLR7 and HEK-Blue hTLR8 cell lines were purchased from InvivoGen, and human PBMCs were purchased from Shanghai Saily Biotechnology Co., Ltd. (Cat. No. XFB—HP100B).
The major instruments used in this study were multifunctional microplate reader Flexstation III (Molecular Device), Envision (Perkin Elmer), M2e (Molecular Device), and Echo555 (Labcyte). 2.1 Agonistic activity of compounds on hTLR7 (human Toll-like receptor 7) and hTLR8 (human Toll-like receptor 8)
Compound dilution: The compounds of the present application are diluted in DMSO, for example, to about 15 mM. The reference compound was added to the plates in sequence after dilution. The compounds were serially 3-fold diluted to 10 concentrations and added to 96-well plates in duplicate.
For the negative control wells, DMSO was added at 0.2 μL/well, and the reference compound was added to the positive control wells. The final concentration of DMSO was 0.2%.
Cell plating: When an 80% confluence of HEK Blue hTLR7&8 cells in the culture flask was observed under a microscope, the culture medium was discarded, 10 mL of detection medium was added, and the cells were separated by pipetting. The cells were counted on a cytometer and diluted to 500,000 cells/mL. The cells were plated at 100 μL/50,000 cells/well in the 96-well plates containing the compounds. The compounds and cells were co-incubated at 37° C. in a 5% CO2 incubator for 24 hours.
Compound activity detection: 20 μL of cell supernatant was taken from each well and added to a plate containing QUANTI-Blue™ reagent at 180 μL/well. The plate was incubated at 37° C. for 1 hour, and the absorbance at 650 nm (OD650) was measured on the multifunctional microplate reader Flexstation III.
Compound activity data analysis: The OD650 values were analyzed by GraphPad Prism software and fitted to give dose-response curves of the compounds. The EC50 values of compounds were calculated.

As for `CCCN(OCc1ccc(N)cc1)C(=O)C1=Cc2ccc(-c3cncc(CO)c3)cc2N=C(N)C1` [Compound 15], the EC50 worked out at 0.712 µM.

Take `CCCN(OCc1ccc(N)cc1)C(=O)C1=Cc2ccc(-c3cncc(C(=O)O)c3)cc2N=C(N)C1` [Compound 32]: under “class symbols”, the EC50 was over 1 µM.

For `CCCN(OCc1ccc(N)cc1)C(=O)C1=Cc2ccc(-c3cccc(S(N)(=O)=O)c3)cc2N=C(N)C1` [Compound 35], the 50% effective concentration (EC50) amounted to 0.758 µM.

For the compound `CCCN(OCc1ccc(N)cc1)C(=O)C1=Cc2ccc(-c3cncc(S(N)(=O)=O)c3)cc2N=C(N)C1` [Compound 36], the EC50 is 1.08 µM.

As to `CCCN(OCc1ccc(N)cc1)C(=O)C1=Cc2ccc(C(=O)N3CC(CO)C3)cc2N=C(N)C1` [Compound 37], the EC50 (class symbols) was over 1 µM.

As to `CCCN(OCc1ccc(N)cc1)C(=O)C1=Cc2ccc(C(=O)Nc3cccnc3)cc2N=C(N)C1` [Compound 40], the concentration giving a half-maximal response (EC50) worked out at 11.7 µM.

Take `CCCN(OCc1ccc(N)cc1)C(=O)C1=Cc2ccc(-c3cccc(S(=O)(=O)N4CC(O)C4)c3)cc2N=C(N)C1` [Compound 41]: the EC50 stood at 2.24 µM.

For `CCCN(OCc1ccc(N)cc1)C(=O)C1=Cc2ccc(-c3ccc(C(=O)N4CC[C@@H](O)C4)cc3)cc2N=C(N)C1` [Compound 42], the EC50 (class symbols) was over 1 µM.

Regarding `CCCN(OCc1ccc(N)cc1)C(=O)C1=Cc2ccc(-c3ccc4c(c3)C(=O)OC4)cc2N=C(N)C1` [Compound 43], the EC50 came out at 0.18 µM.

With `NC1=Nc2cc(-c3cncc(CO)c3)ccc2C=C(C(=O)N(CC2CC2)OCc2ccc(N)cc2)C1` [Compound 45], the EC50 stood at 1.16 µM.

For the compound `CCCN(OCc1ccc(N)cc1)C(=O)C1=Cc2ccc(C(=O)N3CCC(O)C3)cc2N=C(N)C1` (stereo not shown) [Compound 46], the EC50 (class symbols) was over 1 µM.

For `CCCN(OCc1ccc(N)cc1)C(=O)C1=Cc2ccc(C(=O)N3CCOC(CO)C3)cc2N=C(N)C1` (stereo not shown) [Compound 47], for the setting “class symbols”, the EC50 was over 1 µM.

Take `CCCN(OCc1ccc(N)cc1)C(=O)C1=Cc2ccc(C(=O)NCCO)cc2N=C(N)C1` [Compound 48]: the EC50 (class symbols) was over 1 µM.

Regarding `CCCN(OCc1ccc(N)cc1)C(=O)C1=Cc2ccc(-c3cncc(Cl)c3)cc2N=C(N)C1` [Compound 49], the EC50 turned out to be 0.245 µM.

For `CCCN(OCc1ccc(N)cc1)C(=O)C1=Cc2ccc(-c3cncc(C#N)c3)cc2N=C(N)C1` [Compound 50], the EC50 amounted to 0.274 µM.

On to `CCCN(OCc1ccc(N)cc1)C(=O)C1=Cc2ccc(-c3ccc(C#N)nc3)cc2N=C(N)C1` [Compound 51], for which the EC50 amounted to 0.428 µM.

For the compound `CCCN(OCc1ccc(N)cc1)C(=O)C1=Cc2ccc(-c3cncc(N)c3)cc2N=C(N)C1` [Compound 52], the EC50 amounted to 0.355 µM.

Turning to `CCCN(OCc1ccc(N)cc1)C(=O)C1=Cc2ccc(-c3cncc(C(F)(F)F)c3)cc2N=C(N)C1` [Compound 53], the EC50 (class symbols) lay in the range of 0.1 to 1 µM.

Turning to `CCCN(OCc1ccc(N)cc1)C(=O)C1=Cc2ccc(-c3cncc(CN)c3)cc2N=C(N)C1` [Compound 54], the EC50 stood at 0.528 µM.

Regarding `CCCN(OCc1ccc(N)cc1)C(=O)C1=Cc2ccc(-c3ccc(N4CCOCC4)nc3)cc2N=C(N)C1` [Compound 55], the EC50 is 0.685 µM.

For the compound `CCCN(OCc1ccc(N)cc1)C(=O)C1=Cc2ccc(-c3cncc(S(C)(=O)=O)c3)cc2N=C(N)C1` [Compound 56], the 50% effective concentration (EC50) is 0.664 µM.

Regarding `NC1=Nc2cc(-c3cncc(CO)c3)ccc2C=C(C(=O)N(CCC(F)(F)F)OCc2ccc(N)cc2)C1` [Compound 58], under “class symbols”, the EC50 lay in the range of 0.1 to 1 µM.

`CCCN(OCc1ccc(N)cc1Cl)C(=O)C1=Cc2ncc(-c3cncc(CO)c3)cc2N=C(N)C1` [Compound 59]: the EC50 (class symbols) was 0.1 to 1 µM.

As to `CCCN(OCc1ccc(N)cc1OC)C(=O)C1=Cc2ncc(-c3cncc(CO)c3)cc2N=C(N)C1` [Compound 60], the EC50 (class symbols) lay within 0.1 to 1 µM.

Consider `CCCN(OCc1ccc(N)cc1)C(=O)C1=Cc2ncc(-c3cncc(CO)c3)cc2N=C(N)C1` [Compound 61], for which, where the note is “class symbols”, the concentration for a half-maximal effect (EC50) was in the range of 0.1 to 1 µM.

Take `CCCN(OCc1ccc(N)cc1)C(=O)C1=Cc2ccc(-c3cncc(CO)c3)nc2N=C(N)C1` [Compound 62]: where the note is “class symbols”, the EC50 lay in the range of 0.1 to 1 µM.

For `CCCN(OCc1ccc(N)cc1)C(=O)C1=Cc2ccc(-c3cnc4c(c3)C(=O)OC4)nc2N=C(N)C1` [Compound 63], for the setting “class symbols”, the EC50 was in the range of 0.1 to 1 µM.

Take `CCCN(OCc1ccc(N)cc1)C(=O)C1=Cc2ccc(-c3cccc(S(=O)(=O)NCCO)c3)cc2N=C(N)C1` [Compound 64]: the EC50 (class symbols) was in the range of 0.1 to 1 µM.

Take `CCCN(OCc1ccc(N)cc1)C(=O)C1=Cc2ccc(-c3cccc(S(=O)(=O)N4CCC(O)CC4)c3)cc2N=C(N)C1` [Compound 66]: the EC50 (class symbols) was in the range of 0.1 to 1 µM.

Turning to `CCCN(OCc1ccc(N)cc1)C(=O)C1=Cc2ccc(-c3cccc(S(=O)(=O)N4CCNCC4)c3)cc2N=C(N)C1` [Compound 67], where the note is “class symbols”, the concentration giving a half-maximal response (EC50) lay in the range of 0.1 to 1 µM.

In the case of `CCCN(OCc1ccc(N)cc1)C(=O)C1=Cc2ccc(-c3cccc(S(=O)(=O)N4CCOCC4)c3)cc2N=C(N)C1` [Compound 68], where the note is “class symbols”, the EC50 is 0.1 to 1 µM.

Consider `CCCN(OCc1ccc(N)cc1)C(=O)C1=Cc2ccc(-c3cncc(S(=O)(=O)N4CCNCC4)c3)cc2N=C(N)C1` [Compound 69], for which the EC50 (class symbols) lay in the range of 0.1 to 1 µM.

`CCCN(OCc1ccc(N)cc1)C(=O)C1=Cc2ccc(-c3cncc(S(=O)(=O)NCCO)c3)cc2N=C(N)C1` [Compound 70]: under “class symbols”, the EC50 was 0.1 to 1 µM.

As for `CCCN(OCc1ccc(N)cc1)C(=O)C1=Cc2ccc(-c3cncc(S(=O)(=O)N4CCC(O)CC4)c3)cc2N=C(N)C1` [Compound 71], the EC50 (class symbols) lay within 0.1 to 1 µM.

Consider `CCCN(OCc1ccc(N)cc1)C(=O)C1=Cc2ccc(-c3cncc(S(=O)(=O)N4CC[C@H](O)C4)c3)cc2N=C(N)C1` [Compound 72], for which, where the note is “class symbols”, the EC50 is 0.1 to 1 µM.

In the case of `CCCN(OCc1ccc(N)cc1)C(=O)C1=Cc2ccc(-c3cncc([S+](C)[O-])c3)cc2N=C(N)C1` (stereo not shown) [Compound 73], the EC50 (class symbols) is 0.1 to 1 µM.

`CCCN(OCc1ccc(N)cc1)C(=O)C1=Cc2ccc(C(=O)NC(C)(C)c3ccccc3)cc2N=C(N)C1` [Compound 76]: the EC50 (class symbols) fell in the range of 0.1 to 1 µM.

`CCCN(OCc1ccc(N)cc1)C(=O)C1=Cc2ccc(C(=O)N[C@@H](C)c3ccccc3)cc2N=C(N)C1` [Compound 77]: the EC50 (class symbols) lay in the range of 0.1 to 1 µM.

In the case of `CCCN(OCc1ccc(N)cc1)C(=O)C1=Cc2ccc(C(=O)N[C@H]3C[C@@H]3c3ccccc3)cc2N=C(N)C1` [Compound 78], the EC50 (class symbols) is 0.1 to 1 µM.

`CCCN(OCc1ccc(N)cc1)C(=O)C1=Cc2ccc(C(=O)NC3COC3)cc2N=C(N)C1` [Compound 81]: the EC50 (class symbols) is over 1 µM.

For the compound `CCCN(OCc1ccc(N)cc1)C(=O)C1=Cc2ccc(C(=O)NC3CCCCC3)cc2N=C(N)C1` [Compound 82], the EC50 (class symbols) was over 1 µM.

Turning to `CCCN(OCc1ccc(N)cc1)C(=O)C1=Cc2ccc(C(=O)NC3CCOCC3)cc2N=C(N)C1` [Compound 84], the EC50 (class symbols) was over 1 µM.

Regarding `CCCN(OCc1ccc(N)cc1)C(=O)C1=Cc2ccc(C(=O)Nc3cncc(OC)c3)cc2N=C(N)C1` [Compound 85], for the setting “class symbols”, the EC50 is over 1 µM.
